Drawing on patent publication US12606541B2, “PPARg modulators and methods of use” (Eisai R&D Management Co., Ltd., priority 2020, dated 2026), this text covers AC50 and IC50 for 24 compounds.

Read-outs that look alike come from different tables or passages of the source. Bounds are passed on as bounds.

The target in one experiment is T1, His6-TEV-PPARγ-(234-505) (Homo sapiens, UniProt P37231).
T1 construct: The His6-TEV-PPARγ-(234-505) protein for assay was expressed and purified; TEV cleavage site (N); made in house
T1 sequence (P37231 234-505): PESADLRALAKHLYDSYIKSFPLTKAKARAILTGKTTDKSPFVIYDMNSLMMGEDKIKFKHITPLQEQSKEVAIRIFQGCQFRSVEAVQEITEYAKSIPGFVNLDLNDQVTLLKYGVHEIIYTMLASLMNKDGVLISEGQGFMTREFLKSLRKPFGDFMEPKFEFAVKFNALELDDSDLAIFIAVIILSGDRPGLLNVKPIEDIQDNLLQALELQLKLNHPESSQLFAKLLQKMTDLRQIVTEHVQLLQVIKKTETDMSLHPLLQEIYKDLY
In words: TR-FRET Assay to Measure Co-R Peptide Recruitment to PPARγ. It counts as biochemical. The following applies: Co-R peptide (SMRT-ID2) recruitment; top final concentration 20 μM; read-out: TR-FRET i-Ag; AC50. The method, boiled down:
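Corepressor recruitment is measured by adding terbium-labeled anti-His antibody and FITC SMRT-ID2 peptide, at 5 and 200 nM final, after a 20-minute room-temperature protein–compound incubation. After one further hour, signal is converted to percent response between DMSO and 500 nM T0070907 wells.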

Another experiment deals with UM-UC-9 engineered cells. The experiment can be described thus: Cell proliferation / short-term viability assay, CellTiter-Glo 144 h. The experiment is classed as cell-based, human. Particulars: read-out: CTGlo 144 h UMUC9.5, G150. The method, boiled down:
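Viability read by CellTiter-Glo 2.0 luminescence at day 7 versus DMSO-vehicle wells and a T0 plate measured on day 0. Cells: UM-UC-9 engineered assay-ready stocks, 500 cells/well in high-glucose DMEM with 10% FBS, 37° C, 5% CO2.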

Take `COc1cc(-c2cc(C(=O)N3CC[C@@H](C(=O)N[C@H]4CC[C@@](O)(C(F)(F)F)CC4)CC34CC4)n[nH]2)c(F)cn1` (single isomer, unassigned) [Example 169-A]: the AC50 on His6-TEV-PPARγ-(234-505) stood at 0.079 µM. The IC50 with UM-UC-9 engineered cells (Homo sapiens, UM-UC-9, 144 h) is 0.273 µM.
With `COc1cc(-c2cc(C(=O)N3CCC(C(=O)NC4CCC(C)(O)CC4)CC3)n[nH]2)c(Cl)cn1` (stereo not drawn) [Example 264-A], the AC50 at His6-TEV-PPARγ-(234-505) worked out at 0.658 µM. In addition, the IC50 in the experiment on UM-UC-9 engineered cells (Homo sapiens, UM-UC-9, 144 h) came out at 4.89 µM.
The like results for `COc1cc(-c2nc(C(=O)N3CCC(C(=O)NCc4cccc(Cl)c4)CC3)n[nH]2)c(F)cn1` [Example 166, N-[(3-chlorophenyl)methyl]-1-[5-(5-fluoro-2-methoxypyridin-4-yl)-1H-1,2,4-triazole-3-carbonyl]piperidine-4-carboxamide] were, in that order, 0.3 µM and more than 10 µM.
With `COc1cc(-c2cc(C(=O)N3CCC(C(=O)NCc4ccc5c(c4)CC(=O)N5)CC3)n[nH]2)c(Cl)cn1` [Example 167, 1-(5-(5-chloro-2-methoxypyridin-4-yl)-1H-pyrazole-3-carbonyl)-N-((2-oxoindolin-5-yl)methyl)piperidine-4-carboxamide], the AC50 at His6-TEV-PPARγ-(234-505) came out at 0.112 µM. In addition, the IC50 in the experiment on UM-UC-9 engineered cells (Homo sapiens, UM-UC-9, 144 h) was determined as 4.04 µM.
Turning to `COc1cc(-c2cc(C(=O)N3CCC(C(=O)NCc4ncc(N5CCNC6CC65)cn4)CC34CC4)n[nH]2)c(F)cn1` (mixture of isomers) [Example 469, (S)—N-((5-((1S,6R)-2,5-diazabicyclo[4.1.0]heptan-2-yl)pyrimidin-2-yl)methyl)-4-(3-(5-fluoro-2-methoxypyridin-4-yl)-1H-pyrazole-5-carbonyl)-4-azaspiro[2.5]octane-7-carboxamide and (S)—N-((5-((1R,6S)-2,5-diazabicyclo[4.1.0]heptan-2-yl)pyrimidin-2-yl)methyl)-4-(3-(5-fluoro-2-methoxypyridin-4-yl)-1H-pyrazole-5-carbonyl)-4-azaspiro[2.5]octane-7-carboxamide], the AC50 on His6-TEV-PPARγ-(234-505) is 0.0785 µM. Moreover, the IC50 in the experiment on UM-UC-9 engineered cells was 9.02 µM.
Turning to `COc1cc(-c2cc(C(=O)N3CCC(C(=O)NCc4cccc(F)c4)CC3)n[nH]2)c(Cl)cn1` [Example 157, 1-(5-(5-chloro-2-methoxypyridin-4-yl)-1H-pyrazole-3-carbonyl)-N-(3-fluorobenzyl)piperidine-4-carboxamide], the AC50 on His6-TEV-PPARγ-(234-505) is 0.13 µM. In addition, the IC50 with UM-UC-9 engineered cells (Homo sapiens, UM-UC-9, 144 h) was 0.212 µM.
The matching figures for `COc1cc(-c2cc(C(=O)N3CCC(C(=O)NCc4ccc5c(ccn5C)c4)CC3)n[nH]2)c(Cl)cn1` [Example 206, 1-(5-(5-chloro-2-methoxypyridin-4-yl)-1H-pyrazole-3-carbonyl)-N-((1-methyl-1H-indol-5-yl)methyl)piperidine-4-carboxamide]: 0.0138 µM and 0.0866 µM.
The matching figures for `COc1cc(-c2cc(C(=O)N3CC[C@H](C(=O)NCc4nccnc4C)CC34CC4)n[nH]2)c(F)cn1` [Example 397, (S)-4-(5-(5-fluoro-2-methoxypyridin-4-yl)-1H-pyrazole-3-carbonyl)-N-((3-methylpyrazin-2-yl)methyl)-4-azaspiro[2.5]octane-7-carboxamide]: 0.0234 µM and 0.0599 µM.
On to “(S)-4-(5-(5-fluoro-2-methoxypyridin-4-yl)-1H-pyrazole-3-carbonyl)-N-((1s,4R)-4-(hydroxymethyl)-4-(trifluoromethyl)cyclohexyl)-4-azaspiro[2.5]octane-7-carboxamide and (S)-4-(5-(5-fluoro-2-methoxypyridin-4-yl)-1H-pyrazole-3-carbonyl)-N-((1r,4S)-4-(hydroxymethyl)-4-(trifluoromethyl)cyclohexyl)-4-azaspiro[2.5]octane-7-carboxamide [Example 408]”, for which, on His6-TEV-PPARγ-(234-505), the AC50 was determined as 0.0063 µM. Moreover, the IC50 in the experiment with UM-UC-9 engineered cells stood at 0.0072 µM.
The matching figures for `N#Cc1cc(-c2cc(C(=O)N3CCC(C(=O)NC4CCC(O)(C(F)(F)F)CC4)CC34CC4)n[nH]2)ncn1` (single isomer, unassigned) [Example 528-A]: 2.09 µM and more than 10 µM.
Consider `COc1cc(-c2cc(C(=O)N3CCC(C(=O)NCc4cccc5cc[nH]c45)CC3)n[nH]2)c(Cl)cn1` [Example 194, N-((1H-indol-7-yl)methyl)-1-(5-(5-chloro-2-methoxypyridin-4-yl)-1H-pyrazole-3-carbonyl)piperidine-4-carboxamide], for which the AC50 on His6-TEV-PPARγ-(234-505) is 0.808 µM. Besides, in the experiment with UM-UC-9 engineered cells (Homo sapiens, UM-UC-9, 144 h), the IC50 stood at 0.484 µM.
Turning to `COc1cc(-c2cc(C(=O)N3CCC(C(=O)NCC4CCn5c(C)nnc5C4)CC34CC4)n[nH]2)c(F)cn1` (single isomer, unassigned) [Example 346-A], the AC50 on His6-TEV-PPARγ-(234-505) came to 0.504 µM. Moreover, the IC50 in the experiment with UM-UC-9 engineered cells was 2.79 µM.
For `COc1cc(-c2cc(C(=O)N3CCC(C(=O)NC4CCN(c5ccccc5)CC4)CC3)n[nH]2)c(Cl)cn1` [Example 196, 1-(5-(5-chloro-2-methoxypyridin-4-yl)-1H-pyrazole-3-carbonyl)-N-(1-phenylpiperidin-4-yl)piperidine-4-carboxamide], the AC50 on His6-TEV-PPARγ-(234-505) was 0.61 µM. Besides, the IC50 with UM-UC-9 engineered cells (Homo sapiens, UM-UC-9, 144 h) was determined as 1.03 µM.
The matching figures for `COc1cc(-c2cc(C(=O)N3CCC(C(=O)NCc4ccc(OC(F)(F)F)cc4)CC3)n[nH]2)c(Cl)cn1` [Example 164, 1-(5-(5-chloro-2-methoxypyridin-4-yl)-1H-pyrazole-3-carbonyl)-N-(4-(trifluoromethoxy)benzyl)piperidine-4-carboxamide]: 0.608 µM and 1.01 µM.
Take `CCc1cc(-c2cc(C(=O)N3CCC(C(=O)NCc4ncc(F)cc4Cl)CC34CC4)n[nH]2)c(F)cn1` (single isomer, unassigned) [Example 483-A]: the AC50 on His6-TEV-PPARγ-(234-505) was 0.216 µM. Also, the IC50 with UM-UC-9 engineered cells stood at 1.52 µM.
The matching figures for `COc1cc(-c2cc(C(=O)N3CC[C@H](C(=O)NC4CCN(C5COC56CNC6)C4)CC34CC4)n[nH]2)c(F)cn1` (single isomer, unassigned) [Example 461-C]: 0.375 µM and more than 10 µM.
In the case of `COc1cc(-c2cc(C(=O)N3CCC(C(=O)NC4COCc5ccccc54)CC3)n[nH]2)c(Cl)cn1` (racemic) [Example 132, 1-(5-(5-chloro-2-methoxypyridin-4-yl)-1H-pyrazole-3-carbonyl)-N-(isochroman-4-yl)piperidine-4-carboxamide], at His6-TEV-PPARγ-(234-505), the AC50 turned out to be 0.0246 µM. Moreover, the IC50 with UM-UC-9 engineered cells (Homo sapiens, UM-UC-9, 144 h) is 0.136 µM.
As to `COc1cc(-c2cc(C(=O)N3CC[C@H](C(=O)NCc4cccc5ccnn45)CC34CC4)n[nH]2)c(F)cn1` [Example 416, (S)-4-(5-(5-fluoro-2-methoxypyridin-4-yl)-1H-pyrazole-3-carbonyl)-N-(pyrazolo[1,5-a]pyridin-7-ylmethyl)-4-azaspiro[2.5]octane-7-carboxamide], the AC50 on His6-TEV-PPARγ-(234-505) was determined as 0.0061 µM. Moreover, in the experiment on UM-UC-9 engineered cells (Homo sapiens, UM-UC-9, 144 h), the IC50 came out at 0.0074 µM.
The like results for `COc1cc(-c2cc(C(=O)N3CCC(C(=O)NC4C(=O)NCc5ccccc54)CC3)n[nH]2)c(Cl)cn1` (racemic) [Example 244, 1-(5-(5-chloro-2-methoxypyridin-4-yl)-1H-pyrazole-3-carbonyl)-N-(3-oxo-1,2,3,4-tetrahydroisoquinolin-4-yl)piperidine-4-carboxamide] were, in that order, 0.605 µM and 5.56 µM.
Take `COc1cc(-c2cc(C(=O)N3CC[C@H](C(=O)NCc4ncc(F)cc4OC)CC34CC4)n[nH]2)c(F)cn1` [Example 389, (S)-4-(5-(5-fluoro-2-methoxypyridin-4-yl)-1H-pyrazole-3-carbonyl)-N-((5-fluoro-3-methoxypyridin-2-yl)methyl)-4-azaspiro[2.5]octane-7-carboxamide]: the AC50 on His6-TEV-PPARγ-(234-505) is 0.0103 µM. Also, in the experiment with UM-UC-9 engineered cells (Homo sapiens, UM-UC-9, 144 h), the IC50 is 0.013 µM.
In the case of `COc1cc(-c2cc(C(=O)N3CC[C@H](C(=O)NC4CCN(c5cnnc(C)c5)C4)CC34CC4)n[nH]2)c(F)cn1` (single isomer, unassigned) [Example 452-B], the AC50 at His6-TEV-PPARγ-(234-505) stood at 0.142 µM. The IC50 in the experiment with UM-UC-9 engineered cells is more than 10 µM.
The like results for `COc1cc(-c2cc(C(=O)N3CCC(C(=O)NC4CCN(C5COC56CCC6)C4)CC34CC4)n[nH]2)c(F)cn1` (mixture of isomers) [Example 464] were, in that order, 0.0093 µM and 0.0364 µM.
Consider `COc1cc(-c2cc(C(=O)N3CCC(C(=O)NC4CCN(c5ccc(F)cc5)C4)CC3)n[nH]2)c(Cl)cn1` (racemic) [Example 253, 1-(5-(5-chloro-2-methoxypyridin-4-yl)-1H-pyrazole-3-carbonyl)-N-(1-(4-fluorophenyl)pyrrolidin-3-yl)piperidine-4-carboxamide], for which, on His6-TEV-PPARγ-(234-505), the AC50 was 0.051 µM. Moreover, in the experiment on UM-UC-9 engineered cells (Homo sapiens, UM-UC-9, 144 h), the IC50 came to 0.387 µM.
For the compound `COc1cc(-c2cc(C(=O)N3CC[C@H](C(=O)NCc4ccc5c(c4)B(O)OC5(C)C)CC34CC4)[nH]n2)c(F)cn1` [Example 522, (S)-4-(3-(5-fluoro-2-methoxypyridin-4-yl)-1H-pyrazole-5-carbonyl)-N-((1-hydroxy-3,3-dimethyl-1,3-dihydrobenzo[c][1,2]oxaborol-6-yl)methyl)-4-azaspiro[2.5]octane-7-carboxamide], on His6-TEV-PPARγ-(234-505), the AC50 turned out to be 0.0014 µM. In addition, the IC50 in the experiment with UM-UC-9 engineered cells (Homo sapiens, UM-UC-9, 144 h) amounted to 0.0143 µM.
